Measurements taken from article PMC3779154, “Identification of Therapeutic Candidates for Chronic Lymphocytic Leukemia from a Library of Approved Drugs” (PLoS ONE, 2013).
pEC50, pIC50: −log10 of the molar value. Read-outs that look alike come from different tables or passages of the source.

Tests used:
[1] = tested on: normal and solid tumor cell lines
[2] = tested on: ME-180 human cervical carcinoma cell line; experiment: Cell viability assay, ME-180 cells (NPC library profiling)
Source text: Based on the definition of actives, inactives and inconclusive mentioned above, compounds were further clustered hierarchically using Spotfire DecisionSite 8.2 (Spotfire Inc., Cambridge, MA) based on their activity outcomes from the primary screen across a wide variety of cell viability assays against different cell lines or primary patient cells. Each compound was converted into an integer which represents its activity outcome in each cell viability assay. […] Integer 2 represents compounds in “inconclusive” category which is corresponding to light red in the heat map. […] Compounds not tested in the assay were labeled as 4 and shown as grey in the heat map.

[3] = tested on: lymphocytes from normal donors; conditions: for potency shift between CLL and normal donor samples: fresh cells, normal IC50 vs CLL IC50
Method: (§3) Cell viability was measured using a luciferase-based ATP quantitation assay (CellTiter-Glo^TM, Promega). The intracellular ATP content indicates the number of viable (i.e. metabolically competent) cells after compound treatment. Four µL of CLL cells resuspended in AIM medium at 1,330,000 cells/ml, were dispensed into each well of white, solid bottom, 1536-well tissue culture–treated plates using a Multidrop-Combi dispenser and incubated overnight. After that, a total of 23 nL of compounds at 8 selected concentrations from the NPC library or positive control (10 mM stock of doxorubicin hydrochloride) in DMSO was transferred to each well of the assay plate using a pintool (Kalypsys, San Diego, CA), and the plates were further incubated at 37 °C with 5% CO2 for 24 hours to allow the reaction. Then 4µL of CellTilter-Glo luminescent substrate mix was added to each well. The plate was incubated at room temperature for 15 minutes. The plates were measured on a ViewLux plate reader (PerkinElmer) with clear filter.
(§4) These compounds were then re-tested in the cell viability assay using 12 point titrations with concentration ranging from 57 µM to 0.3 nM with 1:3 dilution.
(§5) Fresh primary cells were also obtained from two unaffected normal donors and seven CLL patients whose blood samples were collected within hours of apheresis and which had not been included in our previous experiments.

[4] = tested on: lymphocytes from normal donors; experiment: cells; conditions: Homo sapiens, Lymphocyte, read-out: IC50 normal
Method: as §3, §4, §5

caspase-3/7 = experiment: Caspase-Glo 3/7 activation assay in CLL samples; format: cell-based, human; conditions: CLL samples, 24 hours, read-out: EC50 caspase-3/7 activity
Method: The effect of selected compounds on caspase activity was measured using a homogeneous luminescent method (Caspase-Glo® 3/7, 8 and 9 kits, Promega, Madison, WI). Briefly in this assay, caspase induced by cells cleaves a pro-luciferin substrate where a tetrapeptide caspase substrate - DEVD (asp-glu-val-asp) is cleaved to free aminoluciferin, which can be used as a substrate by luciferase yielding a bioluminescent signal. The luminescent signal is proportional to the amount of caspase activity present in the cells. Cells were dispensed in culture medium at 5,000/cells/5uL/well in 1536-well white/solid-bottom assay plates. The cells were incubated for overnight at 37°C. The compounds (23nL/well) were added via the pin tool. The treated cells were further incubated for 24 h at 37°C, followed by the addition of the Caspase-Glo 3/7, 8 or 9 reagents at 5uL/well. After a 30 min incubation at room temperature, the luminescence intensity of the assay plates was measured using a ViewLux Plate Reader. The caspase activity was normalized to DMSO control.

[5] = tested on: fresh CLL patient lymphocytes; conditions: read-out: IC50 CLL, average of cells from 7 CLL patients, fresh, Figure 5
Method: (§6) Cell viability was measured using a luciferase-based ATP quantitation assay (CellTiter-Glo^TM, Promega). The intracellular ATP content indicates the number of viable (i.e. metabolically competent) cells after compound treatment. […] After that, a total of 23 nL of compounds at 8 selected concentrations from the NPC library or positive control (10 mM stock of doxorubicin hydrochloride) in DMSO was transferred to each well of the assay plate using a pintool (Kalypsys, San Diego, CA), and the plates were further incubated at 37 °C with 5% CO2 for 24 hours to allow the reaction. Then 4µL of CellTilter-Glo luminescent substrate mix was added to each well. The plate was incubated at room temperature for 15 minutes. The plates were measured on a ViewLux plate reader (PerkinElmer) with clear filter. […] The test volume of 5,000 cells/4 μL/well was selected as the final assay condition in cell density tests based on the assay performance statistics: signal/background ratio, coefficient of variation and Z’-factor (data not shown).
as §5

[6] = tested on: lymphocytes from normal donors; experiment: qHTS luminescent ATP cell viability assay, primary screen, normal donor lymphocytes; conditions: differential efficacy or IC50 shift >5-fold
Source text: (§1) Lymphocytes from 13 CLL treatment naïve patients (Table 1 ) and 5 normal donors were obtained by lymphapheresis with written informed consent and isolated by gradient centrifugation using Lymphocyte Separation Medium (MP Biomedicals, Solon, OH) and used fresh or cryopreserved in liquid nitrogen in 10% dimethyl sulfoxide, 90% FCS. CLL patients were consented on the institutional review board (IRB) approved at the National Heart, Lung, and Blood Institute (NHLBI, Office of Clinical Affairs, Bldg 10, CRC. Room 6-5140, Bethesda, Maryland 20892-1608) with protocol 04-H-0012 and samples from normal donors were collected by the Department of Transfusion Medicine, National Institutes of Health (NIH). This study was approved by the IRB mentioned above. Fresh cells were temporally placed on ice and plated for screening within 3 hrs of apheresis. Frozen cells were thawed the night before the assay and incubated in T175 flask in AIM V medium to recover overnight. Analysis of IGHV gene status was performed as described. CLL samples were cultured in AIM V serum free medium (Gibco-Invitrogen, Long Island, NY).
(§2) Compound formatting and qHTS were performed as described previously. The final concentration of the NPC compounds in the 4 µL assay volume ranged from 57 µM to 0.7 nM in 1:5 dilution steps. The positive control plate format was as follows: columns 1 and 3, DMSO only; column 2, doxorubicin, a known cytotoxic chemotherapy agent in a 1:2 dilution series from 10 µM to 5 nM in DMSO; and column 4, doxorubicin at 10 µM in DMSO.
To determine compound activity in the qHTS assay, the concentration-response data for each sample was plotted and modeled by a four parameter logistic fit yielding IC50 and efficacy (maximal response) values as previously described. […] Briefly, raw plate reads for each titration point were first normalized relative to the positive control compound (100%) and DMSO-only wells (basal, 0%), and then corrected by applying a pattern correction algorithm using compound-free control plates (i.e., DMSO-only plates) at the beginning and end of the NPC compound plate stack. […]

[7] = tested on: human thioredoxin reductase; parameters: method as in PMID 19665452; conditions: NADPH-reduced form; cited from earlier work
[8] = tested on: lymphocytic leukemia P388; parameters: method as in PMID 6778607; conditions: cited from earlier work
[9] = tested on: fresh CLL patient lymphocytes; experiment: cells; conditions: Homo sapiens, Lymphocyte
Method: as §6, §5

primary CLL cells = experiment: qHTS luminescent ATP cell viability assay (CellTiter-Glo), primary screen, frozen CLL patient cells; format: cell-based, human; conditions: CLL cells, 24 h, Figure 1
Source text: as §1, §2
To determine compound activity in the qHTS assay, the concentration-response data for each sample was plotted and modeled by a four parameter logistic fit yielding IC50 and efficacy (maximal response) values as previously described. Data normalization and curve fitting were performed using in-house informatics tools. Briefly, raw plate reads for each titration point were first normalized relative to the positive control compound (100%) and DMSO-only wells (basal, 0%), and then corrected by applying a pattern correction algorithm using compound-free control plates (i.e., DMSO-only plates) at the beginning and end of the NPC compound plate stack. […] In brief, Class 1.1 and 1.2 were the highest-confidence complete CRCs containing upper and lower asymptotes with efficacies ≥ 80% and < 80%, respectively. Class 2.1 and 2.2 were incomplete CRCs having only one asymptote with efficacy ≥ 80% and < 80%, respectively.
Compounds from the primary qHTS screen were further classified into three categories according to the quality of curve fit and efficacy.

CLL = tested on: CLL; parameters: method as in PMID 20603650; conditions: oral, single-agent, treated CLL patients; cited from earlier work

tyrothricin
activity in cytotoxicity profiling assays [1]: pan-active | potency variation across cytotoxicity profiling assays [1]: < 5 fold | cytotoxicity in ME-180 cells [2]: prominent cytotoxicity

OCC(S)CS (centres unmarked) [dimercaprol]
potency shift between CLL and normal donor samples [3]: 50 fold | pIC50 [4]: 4.71 | pEC50 (caspase-3/7; Homo sapiens): > 7.00 | pIC50 [5]: > 6.00 | pIC50 ([5]; listed as Dimercaprol): 6.42 | differential cytotoxicity between CLL cells and lymphocytes from normal donors [6]: differential cytotoxicity

OC[C@H]1O[C@H]([S-])[C@H](O)[C@@H](O)[C@@H]1O.[Au+] [aurothioglucose]
inhibition of human thioredoxin reductase [7]: strongly inhibit

CC(=O)OC[C@H]1O[C@@H]([S-])[C@H](OC(C)=O)[C@@H](OC(C)=O)[C@@H]1OC(C)=O.CCP(CC)CC.[Au+] [auranofin]
potency shift between CLL and normal donor samples [3]: 30 fold | potency shift between CLL and normal donor samples ([3]; listed as Auranofin): greater than 30 fold | pIC50 ([3]; read-out: IC50 normal, average of 2 normal donors, fresh, Figure 5): 5.69 | inhibition of human thioredoxin reductase [7]: strongly inhibit | pEC50 (caspase-3/7): > 7.00 | pIC50 [5]: > 6.00 | pIC50 ([5]; listed as Auranofin): 7.15 | differential cytotoxicity between CLL cells and lymphocytes from normal donors [6]: differential cytotoxicity | life span of mice inoculated with lymphocytic leukemia P388 [8]: effective in increasing the life span

Nc1ncn([C@@H]2O[C@H](CO)[C@@H](O)[C@H]2O)c(=O)n1 [azacitidine]
difference in efficacy between CLL and unaffected donor samples ([3]; at 19 µM and 57 µM, the two highest testing concentrations): over 40% | potency shift between CLL and normal donor samples [3]: about 3 fold | decreased efficacy to normal B cells ([3]; versus CLL cells): over 40% | pIC50 [4]: 4.80 | pEC50 (caspase-3/7; Homo sapiens): 5.29 | differential cytotoxicity between CLL cells and lymphocytes from normal donors [6]: differential cytotoxicity | pIC50 ([9]; read-out: IC50 CLL, average of cells from 7 CLL patients, fresh, Figure 5): 5.09

O=C(O)CCCc1ccc(N(CCCl)CCCl)cc1 [chlorambucil]
concentration-response curve class (primary CLL cells): 3 | frequency of complete responses (CLL): less than 5% | pIC50 ([9]; 24 h): 4.52 to 4.92
